Laboratory results as given in patent US8637657B2, “Siderophore-mediated iron uptake in bacterial infection” (priority 2008, dated 2014).
Entries after “also recorded” stand apart in the source; their conditions may differ.

Experiments:
[1] = tested on: S. aureus SbnA mutant; assay: growth culture assay, compounds added to overcome iron-restricted growth defect of SbnA mutant; type: cell-based; conditions: compound added to growth media; data not shown
Experimental: (§1) Using SbnA and SbnB mutants in growth culture assays, compounds were added to the growth media and tested for the ability to overcome the iron-restricted phenotype.

[2] = tested on: S. aureus SbnB mutant; type: cell-based; conditions: compound added to growth media
Experimental: as §1

[3] = tested on: SirA mutant; assay: disc growth assay with cell-free synthesized staphyloferrin A, SirA mutant; type: cell-based, S. aureus; conditions: paper disk on agar plate, 37° C. for 24 hours
Experimental: (§2) Growth radius was measured around the disc after incubation of plates at 37° C. for 24 hours.

[4] = tested on: HtsSir mutant; assay: disc growth assay with cell-free synthesized staphyloferrin A, HtsSir mutant; type: cell-based, S. aureus; conditions: paper disk on agar plate, 37° C. for 24 hours
Experimental: as §2

[5] = tested on: wildtype S. aureus; assay: disc growth assay with cell-free synthesized staphyloferrin A, wildtype; type: cell-based; conditions: paper disk on agar plate, 37° C. for 24 hours
Experimental: as §2

[6] = tested on: Hts mutant; assay: disc growth assay with cell-free synthesized staphyloferrin A, Hts mutant; type: cell-based, S. aureus; conditions: paper disk on agar plate, 37° C. for 24 hours
Experimental: as §2

[7] = biological target: T1, SbnF (Staphylococcus aureus, UniProt Q2G1M8); assay: hydroxylamine trapping (hydroxamate formation) assay, SbnF; type: biochemical, S. aureus; conditions: 5 μM enzyme
T1 construct: 6xHis; made in house; host or cells: E. coli BL21 (DE3)
T1 sequence (Q2G1M8 25-616 limits assumed): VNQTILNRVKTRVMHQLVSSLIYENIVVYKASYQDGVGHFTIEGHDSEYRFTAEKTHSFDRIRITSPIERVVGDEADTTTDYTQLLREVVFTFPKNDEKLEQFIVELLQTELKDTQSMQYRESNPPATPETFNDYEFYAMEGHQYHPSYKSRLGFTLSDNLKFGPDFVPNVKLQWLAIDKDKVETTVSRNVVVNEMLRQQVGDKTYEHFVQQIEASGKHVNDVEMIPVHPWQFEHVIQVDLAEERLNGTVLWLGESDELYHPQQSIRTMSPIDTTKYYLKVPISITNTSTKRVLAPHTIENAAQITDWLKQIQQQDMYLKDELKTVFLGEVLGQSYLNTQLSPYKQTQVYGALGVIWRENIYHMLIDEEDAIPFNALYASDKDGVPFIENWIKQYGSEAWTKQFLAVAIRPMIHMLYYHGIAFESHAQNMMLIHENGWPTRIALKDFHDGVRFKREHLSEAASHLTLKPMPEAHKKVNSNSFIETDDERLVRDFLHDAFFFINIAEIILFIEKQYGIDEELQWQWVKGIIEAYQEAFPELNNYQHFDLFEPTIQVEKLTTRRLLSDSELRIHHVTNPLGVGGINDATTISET
Experimental: All reactions were performed in 300 μL volumes and the following were common to each reaction: 2.25 mM ATP, 15 mM MgCl2, 150 mM hydroxylamine, and 50 mM HEPES pH 7.4. […] Similarly, to assess which enzyme utilized α-KG as a substrate, 5 μM of SbnC, SbnE, or SbnF were incubated with 3 mM α-KG and the common reaction components. […] This reaction was then heat treated at 70° C. to deactivate SbnE and the reaction was then centrifuged at 14 500 rpm for 10 minutes to pellet precipitated enzyme. The supernatant which now contains the citryl-Dae intermediate was incubated with fresh 5 μM SbnF or SbnC, 2.25 mM ATP, and 150 mM hydroxylamine. To assess the potential recognition of citryl-Dap as a substrate for SbnF or SbnC, this intermediate was formed as described above except that Dae was replaced with 50 mM Dap instead. For each reaction, a duplicate control reaction was prepared in which the enzyme was previously inactivated by heating at 100° C. for 10 minutes. All reactions described above were incubated at room temperature in the dark for 1 hour before addition of 300 μL stopping solution which consisted of 10% (w/v) FeCl3 and 3.3% (w/v) trichloroacetic acid in 0.7 M HCl. Reactions were centrifuged at 20 000×g for 5 minutes to remove precipitate and the formation of ferric hydroxamate was detected spectrophotometrically at 540 nm. Relative absorbance values reported in this study were calculated by subtracting the absorbance of the control (boiled enzyme) reactions from the absorbance of experimental reactions.

[8] = biological target: T2, SbnE (Staphylococcus aureus, UniProt Q2G1M9); assay: hydroxylamine trapping (hydroxamate formation) assay, SbnE; type: biochemical, S. aureus; conditions: 5 μM enzyme, 3 mM substrate
T2 construct: 6xHis; made in house; host or cells: E. coli BL21 (DE3)
Experimental: All reactions were performed in 300 μL volumes and the following were common to each reaction: 2.25 mM ATP, 15 mM MgCl2, 150 mM hydroxylamine, and 50 mM HEPES pH 7.4. […] The supernatant which now contains the citryl-Dae intermediate was incubated with fresh 5 μM SbnF or SbnC, 2.25 mM ATP, and 150 mM hydroxylamine. To assess the potential recognition of citryl-Dap as a substrate for SbnF or SbnC, this intermediate was formed as described above except that Dae was replaced with 50 mM Dap instead. For each reaction, a duplicate control reaction was prepared in which the enzyme was previously inactivated by heating at 100° C. for 10 minutes. All reactions described above were incubated at room temperature in the dark for 1 hour before addition of 300 μL stopping solution which consisted of 10% (w/v) FeCl3 and 3.3% (w/v) trichloroacetic acid in 0.7 M HCl. Reactions were centrifuged at 20 000×g for 5 minutes to remove precipitate and the formation of ferric hydroxamate was detected spectrophotometrically at 540 nm. Relative absorbance values reported in this study were calculated by subtracting the absorbance of the control (boiled enzyme) reactions from the absorbance of experimental reactions.
Essentially, this assay is used to monitor the specific activity of a synthetase towards a particular carboxylic acid.

[9] = tested on: HtsA; assay: heme binding to purified HtsA (absorption spectra); set-up: species or system S. aureus; conditions: in comparison to IsdE
Text: FIG. 10 illustrates the absorption spectra of purified IsdE, HtsA and SirA proteins in the absence of heme (A) and on exposure to heme (B);
In liquid growth assays, no attenuation of the htsABC deletion mutant, H1665, when grown on heme as a sole iron source (data not shown) was observed.

[10] = tested on: siderophore-deficient S. aureus (ΔsfaΔsbn); assay: iron-starved growth of siderophore-deficient S. aureus with in vitro synthesized staphyloferrin B; type: cell-based; conditions: enzymatic reaction material from complete reactions, increasing amounts
Experimental: Bacteria were cultured for 12 hours in TMS broth then 12 hours in TMS broth containing 100 μM 2,2′-dipyridyl (Sigma-Aldrich). Cells were washed twice in saline, and diluted 1:100 into 60% horse serum (Sigma-Aldrich)—40% TMS broth. For iron-replete media, 50 μM FeCl3 was included. Cultures were grown under constant, medium amplitude shaking in a Bioscreen C machine (Growth Curves, USA). Optical density was measured at 600 nm every 30 min. However, for clarity of growth curve figures, data are shown only at 2-hour intervals.
This staphyloferrin B-dependent growth promotion was mediated by the ABC transporter SirABC (FIG. 14B), which is encoded by the sirABC operon divergently transcribed from the sbn operon (FIG. 13A).

[11] = biological target: T3, SbnC (Staphylococcus aureus, UniProt Q2G1N1); assay: hydroxylamine trapping (hydroxamate formation) assay, SbnC; type: biochemical, S. aureus; conditions: 5 μM enzyme, 3 mM substrate
T3 construct: 6xHis; made in house; host or cells: E. coli BL21 (DE3)
T3 sequence (Q2G1N1 1-584): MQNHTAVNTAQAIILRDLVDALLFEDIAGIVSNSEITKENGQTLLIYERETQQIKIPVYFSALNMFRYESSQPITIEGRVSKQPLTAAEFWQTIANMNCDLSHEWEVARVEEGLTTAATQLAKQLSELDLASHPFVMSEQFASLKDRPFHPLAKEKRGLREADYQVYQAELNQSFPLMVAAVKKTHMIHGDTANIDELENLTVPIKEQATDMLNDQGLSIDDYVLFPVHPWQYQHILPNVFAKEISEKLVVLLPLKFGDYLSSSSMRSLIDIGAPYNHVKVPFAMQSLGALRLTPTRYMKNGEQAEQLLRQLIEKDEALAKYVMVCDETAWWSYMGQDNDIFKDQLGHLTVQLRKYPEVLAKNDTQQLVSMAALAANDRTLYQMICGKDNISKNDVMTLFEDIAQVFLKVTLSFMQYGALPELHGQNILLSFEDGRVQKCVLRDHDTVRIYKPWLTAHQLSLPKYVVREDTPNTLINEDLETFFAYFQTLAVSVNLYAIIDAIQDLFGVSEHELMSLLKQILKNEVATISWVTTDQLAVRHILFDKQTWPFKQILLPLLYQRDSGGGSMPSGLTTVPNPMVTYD
Experimental: To assess the potential recognition of citryl-Dap as a substrate for SbnF or SbnC, this intermediate was formed as described above except that Dae was replaced with 50 mM Dap instead. For each reaction, a duplicate control reaction was prepared in which the enzyme was previously inactivated by heating at 100° C. for 10 minutes. All reactions described above were incubated at room temperature in the dark for 1 hour before addition of 300 μL stopping solution which consisted of 10% (w/v) FeCl3 and 3.3% (w/v) trichloroacetic acid in 0.7 M HCl. Reactions were centrifuged at 20 000×g for 5 minutes to remove precipitate and the formation of ferric hydroxamate was detected spectrophotometrically at 540 nm. Relative absorbance values reported in this study were calculated by subtracting the absorbance of the control (boiled enzyme) reactions from the absorbance of experimental reactions.

[12] = tested on: S. aureus; assay: promotion of iron-starved growth of S. aureus; type: cell-based; conditions: SbnE reaction product; data not shown
Experimental: Siderophore plate bioassays were performed as described (Beasley et al., 2009). Growth promotion, as measured by the diameter of the growth halo around each disk, was determined after 36 h incubation at 37° C.

[13] = chrome azurol S (CAS) assay of iron chelating / siderophore activity; conditions: SbnE reaction product
Text: Strains of S. aureus containing complete sbn operon deletions (i.e. deleted for all of sbnA through sbnI genes) were constructed. In S. aureus Newman background, the sbn deletion strain was called H1331 whereas in RN6390 background, it was called H1324. […] Supplementation of serum growth media with iron obviated the growth defect of H1331 (FIG. 1, inset), and suppressed siderophore production in both Newman and H1331 (FIG. 2). […] To ensure that this was not due to a strain-specific phenomenon, all experiments described above were repeated using instead the RN6390 genetic background (i.e. RN6390 vs. H1324). Equivalent results were obtained (data not shown).
To measure levels of siderophore activity, chrome azurol S (CAS) shuttle solution was prepared as described. In the case of in vitro synthesized staphyloferrin B, 50 μL of the reaction mixture were removed and diluted in 450 μL of deionized water followed by 500 μL of CAS shuttle solution in a 1 ml spectrophotometer cuvette. The mixture was then incubated in the dark for 45 minutes. Siderophore quantification and absorbance readings were performed as described (Beasley et al., 2009).

T2 sequence (Q2G1M9 whole entry): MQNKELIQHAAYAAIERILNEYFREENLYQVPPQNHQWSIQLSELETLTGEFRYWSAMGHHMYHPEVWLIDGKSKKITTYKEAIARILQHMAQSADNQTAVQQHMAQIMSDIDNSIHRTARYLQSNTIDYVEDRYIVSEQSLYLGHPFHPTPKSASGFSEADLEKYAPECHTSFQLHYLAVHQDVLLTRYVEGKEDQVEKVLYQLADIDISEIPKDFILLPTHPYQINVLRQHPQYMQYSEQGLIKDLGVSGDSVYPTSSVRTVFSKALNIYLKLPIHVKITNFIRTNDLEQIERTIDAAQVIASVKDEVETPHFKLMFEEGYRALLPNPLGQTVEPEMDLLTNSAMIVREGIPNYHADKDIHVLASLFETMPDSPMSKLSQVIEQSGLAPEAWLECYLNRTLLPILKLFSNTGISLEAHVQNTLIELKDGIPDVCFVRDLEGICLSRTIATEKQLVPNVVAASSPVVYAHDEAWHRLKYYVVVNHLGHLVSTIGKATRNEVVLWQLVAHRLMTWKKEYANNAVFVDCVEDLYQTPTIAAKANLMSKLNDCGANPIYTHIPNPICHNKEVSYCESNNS

NCC(N)C(=O)O (stereo not drawn) [2,3-diamonpropionate, 2,3-diaminopropionate]
overcoming the iron-restricted growth defect of the SbnA mutant [1]: can be overcome
overcoming the iron-restricted growth defect of the SbnB mutant [2]: can be overcome

O=C(O)CC(O)(CC(=O)NCCC[C@@H](NC(=O)CC(O)(CC(=O)O)C(=O)O)C(=O)O)C(=O)O (stereo partly drawn) [Staphyloferrin A, staphyloferrin A]
growth promotion of SirA mutant [3]: promoted growth
growth promotion of HtsSir mutant [4]: did not promote growth
growth promotion of wildtype S. aureus [5]: promoted growth
growth promotion of Hts mutant [6]: did not promote growth

O=C(O)CC(O)(CC(=O)O)C(=O)O [citrate]
activity of SbnF towards carboxylic acid substrate [7]: small level of activity
activity of SbnE towards carboxylic acid substrate [8]: high level of specific activity

NCCNC(=O)CC(O)(CC(=O)O)C(=O)O (stereo not drawn) [citryl-Dae]
activity of SbnF towards carboxylic acid substrate [7]: high levels of activity

C=CC1=C(C)c2cc3[n-]c(cc4[n-]c(cc5nc(cc1n2)C(C)=C5C=C)c(C)c4CCC(=O)O)c(CCC(=O)O)c3C.[Fe+2] [heme]
heme association with purified HtsA [9]: little to no heme would associate

O=C(O)[C@@H]1CCCN1 [proline]
overcoming the iron-restricted growth defect of the SbnB mutant [2]: unable to overcome

N[C@@H](CNC(=O)C[C@@](O)(CC(=O)NCCNC(=O)CCC(=O)C(=O)O)C(=O)O)C(=O)O [staphyloferrin B]
promotion of iron-starved growth of siderophore-deficient S. aureus (ΔsfaΔsbn) [10]: readily promote the iron-starved growth; also recorded: reaching levels comparable to growth in the presence of iron

O=C(O)CCC(=O)C(=O)O [α-KG, α-ketoglutarate]
activity of SbnF towards carboxylic acid substrate [7]: not
activity of SbnE towards carboxylic acid substrate [8]: not
activity of SbnC towards carboxylic acid substrate [11]: activates

NC(CNC(=O)CC(O)(CC(=O)O)C(=O)O)C(=O)O (stereo not drawn) [β-citryl-Dap intermediate]
activity of SbnF towards carboxylic acid substrate [7]: did not react
promotion of iron-starved growth of S. aureus [12]: unable to promote
reaction with CAS reagent [13]: reacted strongly
